Data reported in ChEMBL document CHEMBL4715697, “Synthesis and biological activity of benzamide DNA minor groove binders” (2016).

Assays:
Type in all cases: functional
Conditions in all cases: read-out: Activity
UO-31 = assay: Growth inhibition of human UO-31 cells assessed as cell growth at 10 uM incubated for 48 hrs by sulforhodamine B assay relative to control
RPMI-8226 = assay: Growth inhibition of human RPMI-8226 cells assessed as cell growth at 10 uM incubated for 48 hrs by sulforhodamine B assay relative to control
SK-MEL-28 = assay: Growth inhibition of human SK-MEL-28 cells assessed as cell growth at 10 uM incubated for 48 hrs by sulforhodamine B assay relative to control
786-0 = assay: Growth inhibition of human 786-0 cells assessed as cell growth at 10 uM incubated for 48 hrs by sulforhodamine B assay relative to control
DU-145 = assay: Growth inhibition of human DU-145 cells assessed as cell growth at 10 uM incubated for 48 hrs by sulforhodamine B assay relative to control
HT-29 = assay: Growth inhibition of human HT-29 cells assessed as cell growth at 10 uM incubated for 48 hrs by sulforhodamine B assay relative to control
RXF 393 = assay: Growth inhibition of human RXF 393 cells assessed as cell growth at 10 uM incubated for 48 hrs by sulforhodamine B assay relative to control
HOP-62 = assay: Growth inhibition of human HOP-62 cells assessed as cell growth at 10 uM incubated for 48 hrs by sulforhodamine B assay relative to control
SR = assay: Growth inhibition of human SR cells assessed as cell growth at 10 uM incubated for 48 hrs by sulforhodamine B assay relative to control
M14 = assay: Growth inhibition of human M14 cells assessed as cell growth at 10 uM incubated for 48 hrs by sulforhodamine B assay relative to control
EKVX = assay: Growth inhibition of human EKVX cells assessed as cell growth at 10 uM incubated for 48 hrs by sulforhodamine B assay relative to control
IGROV-1 = assay: Growth inhibition of human IGROV-1 cells assessed as cell growth at 10 uM incubated for 48 hrs by sulforhodamine B assay relative to control
PC-3 = assay: Growth inhibition of human PC-3 cells assessed as cell growth at 10 uM incubated for 48 hrs by sulforhodamine B assay relative to control
OVCAR-5 = assay: Growth inhibition of human OVCAR-5 cells assessed as cell growth at 10 uM incubated for 48 hrs by sulforhodamine B assay relative to control
SK-OV-3 = assay: Growth inhibition of human SK-OV-3 cells assessed as cell growth at 10 uM incubated for 48 hrs by sulforhodamine B assay relative to control
UACC-257 = assay: Growth inhibition of human UACC-257 cells assessed as cell growth at 10 uM incubated for 48 hrs by sulforhodamine B assay relative to control
ACHN = assay: Growth inhibition of human ACHN cells assessed as cell growth at 10 uM incubated for 48 hrs by sulforhodamine B assay relative to control
SK-MEL-5 = assay: Growth inhibition of human SK-MEL-5 cells assessed as cell growth at 10 uM incubated for 48 hrs by sulforhodamine B assay relative to control
KM12 = assay: Growth inhibition of human KM12 cells assessed as cell growth at 10 uM incubated for 48 hrs by sulforhodamine B assay relative to control
MDA-MB-435 = assay: Growth inhibition of human MDA-MB-435 cells assessed as cell growth at 10 uM incubated for 48 hrs by sulforhodamine B assay relative to control
SF-268 = assay: Growth inhibition of human SF-268 cells assessed as cell growth at 10 uM incubated for 48 hrs by sulforhodamine B assay relative to control
MDA-MB-468 = assay: Growth inhibition of human MDA-MB-468 cells assessed as cell growth at 10 uM incubated for 48 hrs by sulforhodamine B assay relative to control
SNB-19 = assay: Growth inhibition of human SNB-19 cells assessed as cell growth at 10 uM incubated for 48 hrs by sulforhodamine B assay relative to control
Malme-3M = assay: Growth inhibition of human Malme-3M cells assessed as cell growth at 10 uM incubated for 48 hrs by sulforhodamine B assay relative to control
OVCAR-8 = assay: Growth inhibition of human OVCAR-8 cells assessed as cell growth at 10 uM incubated for 48 hrs by sulforhodamine B assay relative to control
U-251 = assay: Growth inhibition of human U-251 cells assessed as cell growth at 10 uM incubated for 48 hrs by sulforhodamine B assay relative to control
NCI-H226 = assay: Growth inhibition of human NCI-H226 cells assessed as cell growth at 10 uM incubated for 48 hrs by sulforhodamine B assay relative to control
K562 = assay: Growth inhibition of human K562 cells assessed as cell growth at 10 uM incubated for 48 hrs by sulforhodamine B assay relative to control
SK-MEL-2 = assay: Growth inhibition of human SK-MEL-2 cells assessed as cell growth at 10 uM incubated for 48 hrs by sulforhodamine B assay relative to control
UACC-62 = assay: Growth inhibition of human UACC-62 cells assessed as cell growth at 10 uM incubated for 48 hrs by sulforhodamine B assay relative to control
SW-620 = assay: Growth inhibition of human SW-620 cells assessed as cell growth at 10 uM incubated for 48 hrs by sulforhodamine B assay relative to control
LOX IMVI = assay: Growth inhibition of human LOX IMVI cells assessed as cell growth at 10 uM incubated for 48 hrs by sulforhodamine B assay relative to control
COLO 205 = assay: Growth inhibition of human COLO 205 cells assessed as cell growth at 10 uM incubated for 48 hrs by sulforhodamine B assay relative to control
MDA-MB-231 = assay: Growth inhibition of human MDA-MB-231 cells assessed as cell growth at 10 uM incubated for 48 hrs by sulforhodamine B assay relative to control
MOLT-4 = assay: Growth inhibition of human MOLT-4 cells assessed as cell growth at 10 uM incubated for 48 hrs by sulforhodamine B assay relative to control
CCRF-CEM = assay: Growth inhibition of human CCRF-CEM cells assessed as cell growth at 10 uM incubated for 48 hrs by sulforhodamine B assay relative to control
HCT-15 = assay: Growth inhibition of human HCT-15 cells assessed as cell growth at 10 uM incubated for 48 hrs by sulforhodamine B assay relative to control
NCI-H23 = assay: Growth inhibition of human NCI-H23 cells assessed as cell growth at 10 uM incubated for 48 hrs by sulforhodamine B assay relative to control
OVCAR-3 = assay: Growth inhibition of human OVCAR-3 cells assessed as cell growth at 10 uM incubated for 48 hrs by sulforhodamine B assay relative to control
HCT-116 = assay: Growth inhibition of human HCT-116 cells assessed as cell growth at 10 uM incubated for 48 hrs by sulforhodamine B assay relative to control

| Compound | growth at 10 µM (UO-31) [%] | growth at 10 µM (RPMI-8226) [%] | growth at 10 µM (SK-MEL-28) [%] | growth at 10 µM (786-0) [%] | growth at 10 µM (DU-145) [%] | growth at 10 µM (HT-29) [%] | growth at 10 µM (RXF 393) [%] | growth at 10 µM (HOP-62) [%] | growth at 10 µM (SR) [%] | growth at 10 µM (M14) [%] | growth at 10 µM (EKVX) [%] | growth at 10 µM (IGROV-1) [%] | growth at 10 µM (PC-3) [%] | growth at 10 µM (OVCAR-5) [%] | growth at 10 µM (SK-OV-3) [%] | growth at 10 µM (UACC-257) [%] | growth at 10 µM (ACHN) [%] | growth at 10 µM (SK-MEL-5) [%] | growth at 10 µM (KM12) [%] | growth at 10 µM (MDA-MB-435) [%] | also measured |
| --- | --- | --- | --- | --- | --- | --- | --- | --- | --- | --- | --- | --- | --- | --- | --- | --- | --- | --- | --- | --- | --- |
| CC(=O)Nc1cc(CO)cc(NC(=O)c2ccc(C(=O)Nc3cccc(NC(=O)CCCN(C)C)c3)cc2)c1 | 112 | 95.6 | 85.3 | 104 | 105 | 59.4 | 113 | 77.7 | 11 | 81 | 95.5 | 87.4 | 98.6 | 109 | 117 | 88 | 92.8 | 77.7 | 83.1 | 70 | growth at 10 µM (SF-268): 79.4%; growth at 10 µM (MDA-MB-468): 83.8%; growth at 10 µM (SNB-19): 114%; growth at 10 µM (Malme-3M): 17.6%; growth at 10 µM (OVCAR-8): 105%; growth at 10 µM (U-251): 69.9%; growth at 10 µM (NCI-H226): 93.6%; growth at 10 µM (K562): 16.7%; growth at 10 µM (SK-MEL-2): 91.8%; growth at 10 µM (UACC-62): 64.6%; growth at 10 µM (SW-620): 98.2%; growth at 10 µM (LOX IMVI): 88.1%; growth at 10 µM (COLO 205): 76.3%; growth at 10 µM (MDA-MB-231): 88.6%; growth at 10 µM (MOLT-4): 57.9%; growth at 10 µM (CCRF-CEM): 41.2%; growth at 10 µM (HCT-15): 105%; growth at 10 µM (NCI-H23): 99.1%; growth at 10 µM (OVCAR-3): 119%; growth at 10 µM (HCT-116): 79% |
| CC(=O)Nc1cc(CO)cc(NC(=O)c2cccc(NC(=O)CCCN3CCOCC3)c2)c1 | 95.5 | 92.1 | 115 | 99.4 | 108 | 106 | 105 | 103 | 105 | 106 | 113 | 106 | 102 | 101 | 104 | 107 | 108 | 104 | 135 | 103 | growth at 10 µM (SF-268): 107%; growth at 10 µM (MDA-MB-468): 92.3%; growth at 10 µM (SNB-19): 97.7%; growth at 10 µM (Malme-3M): 112%; growth at 10 µM (OVCAR-8): 107%; growth at 10 µM (U-251): 104%; growth at 10 µM (NCI-H226): 96.7%; growth at 10 µM (K562): 105%; growth at 10 µM (SK-MEL-2): 97.8%; growth at 10 µM (UACC-62): 100%; growth at 10 µM (SW-620): 108%; growth at 10 µM (LOX IMVI): 99.8%; growth at 10 µM (COLO 205): 110%; growth at 10 µM (MDA-MB-231): 104%; growth at 10 µM (MOLT-4): 102%; growth at 10 µM (CCRF-CEM): 89.4%; growth at 10 µM (HCT-15): 103%; growth at 10 µM (NCI-H23): 105%; growth at 10 µM (OVCAR-3): 145%; growth at 10 µM (HCT-116): 98.9% |
| CC(=O)Nc1cc(CO)cc(NC(=O)c2ccc(C(=O)NCCCN3CCOCC3)cc2)c1 | 100 | 95.3 | 102 | 101 | 113 | 115 | 108 | 105 | 94.1 | 98.9 | 115 | 110 | 100 | 103 | 106 | 103 | 108 | 102 | 113 | 103 | growth at 10 µM (SF-268): 109%; growth at 10 µM (MDA-MB-468): 96%; growth at 10 µM (SNB-19): 107%; growth at 10 µM (Malme-3M): 106%; growth at 10 µM (OVCAR-8): 103%; growth at 10 µM (U-251): 99.5%; growth at 10 µM (NCI-H226): 95.6%; growth at 10 µM (K562): 103%; growth at 10 µM (SK-MEL-2): 94.3%; growth at 10 µM (UACC-62): 101%; growth at 10 µM (SW-620): 102%; growth at 10 µM (LOX IMVI): 101%; growth at 10 µM (COLO 205): 106%; growth at 10 µM (MDA-MB-231): 103%; growth at 10 µM (MOLT-4): 94.4%; growth at 10 µM (CCRF-CEM): 94.9%; growth at 10 µM (HCT-15): 103%; growth at 10 µM (NCI-H23): 100%; growth at 10 µM (OVCAR-3): 118%; growth at 10 µM (HCT-116): 105% |
